The record followed here is ChEMBL document CHEMBL5523701, “Structure-based discovery of small molecule inhibitors of FKBP51-Hsp90 protein-protein interaction” (Eur J Med Chem, 2024).

pIC50, pKd: −log10 of the molar value.

Series [1] addresses T1, Peptidyl-prolyl cis-trans isomerase FKBP5 (Homo sapiens, UniProt Q13451).
T1 sequence (Q13451 whole entry): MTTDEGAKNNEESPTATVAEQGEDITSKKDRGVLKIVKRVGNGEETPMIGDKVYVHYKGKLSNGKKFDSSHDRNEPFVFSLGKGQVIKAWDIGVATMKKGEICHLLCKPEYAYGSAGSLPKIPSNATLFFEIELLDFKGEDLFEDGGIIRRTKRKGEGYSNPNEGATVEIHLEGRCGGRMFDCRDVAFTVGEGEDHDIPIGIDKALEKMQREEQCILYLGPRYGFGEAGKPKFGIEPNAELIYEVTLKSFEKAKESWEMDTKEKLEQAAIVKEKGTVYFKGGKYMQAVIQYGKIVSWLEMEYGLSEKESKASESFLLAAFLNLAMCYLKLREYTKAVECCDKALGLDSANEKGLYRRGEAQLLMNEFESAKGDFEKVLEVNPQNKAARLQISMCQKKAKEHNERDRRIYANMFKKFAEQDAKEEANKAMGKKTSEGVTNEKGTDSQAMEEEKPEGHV
Nature of the series: Binding affinity to GST-tagged human FKBP51 expressed in Escherichia coli BL21 (DE3) immobilized in CM7 sensor chip assessed as equilibrium dissociation constant by SPR analysis.

The target in series [2] is T1, Peptidyl-prolyl cis-trans isomerase FKBP5. As to the kind of experiment: Inhibition of GST-tagged human FKBP51 expressed in Escherichia coli BL21 (DE3) using NH2-EDASRMEEVD-COOH peptide as substrate preincubated for 15 mins followed by substrate addition measured after 15 mins by Alpha Screen assay.
In series [3] the target is T2, Peptidyl-prolyl cis-trans isomerase FKBP4 (Homo sapiens, UniProt Q02790).
T2 sequence (Q02790 whole entry): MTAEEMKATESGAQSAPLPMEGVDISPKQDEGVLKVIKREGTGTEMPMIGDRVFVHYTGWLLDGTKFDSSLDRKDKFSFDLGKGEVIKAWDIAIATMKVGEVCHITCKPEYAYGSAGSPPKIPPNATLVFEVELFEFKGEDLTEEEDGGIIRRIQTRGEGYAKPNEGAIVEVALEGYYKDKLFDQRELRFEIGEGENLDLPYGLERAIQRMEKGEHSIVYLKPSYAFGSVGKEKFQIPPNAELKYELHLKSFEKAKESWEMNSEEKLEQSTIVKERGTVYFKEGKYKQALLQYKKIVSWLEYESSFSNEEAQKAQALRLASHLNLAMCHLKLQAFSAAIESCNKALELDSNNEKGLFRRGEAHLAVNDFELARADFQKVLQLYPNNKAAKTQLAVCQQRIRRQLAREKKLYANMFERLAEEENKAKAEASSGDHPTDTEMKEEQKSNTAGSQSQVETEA
As to the kind of experiment: Binding affinity to GST-tagged human FKBP52 expressed in Escherichia coli BL21 (DE3) immobilized in CM7 sensor chip assessed as equilibrium dissociation constant by SPR analysis.

Series [4] deals with T3, E3 ubiquitin-protein ligase CHIP (Homo sapiens, UniProt Q9UNE7).
T3 sequence (Q9UNE7 whole entry): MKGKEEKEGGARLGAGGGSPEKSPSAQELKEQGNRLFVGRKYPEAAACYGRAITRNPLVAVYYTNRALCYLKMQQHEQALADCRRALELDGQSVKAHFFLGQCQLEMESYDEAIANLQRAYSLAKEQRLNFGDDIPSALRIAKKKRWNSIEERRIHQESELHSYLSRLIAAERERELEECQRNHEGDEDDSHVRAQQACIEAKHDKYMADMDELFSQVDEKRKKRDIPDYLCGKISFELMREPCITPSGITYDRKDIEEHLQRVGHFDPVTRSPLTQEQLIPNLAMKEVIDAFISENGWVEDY
As to the kind of experiment: Inhibition of GST-tagged human CHIP expressed in Escherichia coli BL21 (DE3) using NH2-EDASRMEEVD-COOH peptide as substrate preincubated for 15 mins followed by substrate addition measured after 15 mins by Alpha Screen assay.

The subject of another series is HEK293. Nature of the series: Induction of cell proliferation in HEK293 cells at 10 uM measured for 1 to 4 hrs by MTT assay relative to control. It is filed as functional, Homo sapiens. Particulars: time 1-4 hrs.
Series [5] concerns the target T2, Peptidyl-prolyl cis-trans isomerase FKBP4. As to the kind of experiment: Inhibition of GST-tagged human FKBP52 expressed in Escherichia coli BL21 (DE3) using NH2-EDASRMEEVD-COOH peptide as substrate preincubated for 15 mins followed by substrate addition measured after 15 mins by Alpha Screen assay.
Series [6] in a line: Solubility of compound in cell culture media upto 30 uM. The class given is physicochemical.
For series [7], the target named is T4, Mitochondrial import receptor subunit TOM34 (Homo sapiens, UniProt Q15785).
T4 sequence (Q15785 whole entry): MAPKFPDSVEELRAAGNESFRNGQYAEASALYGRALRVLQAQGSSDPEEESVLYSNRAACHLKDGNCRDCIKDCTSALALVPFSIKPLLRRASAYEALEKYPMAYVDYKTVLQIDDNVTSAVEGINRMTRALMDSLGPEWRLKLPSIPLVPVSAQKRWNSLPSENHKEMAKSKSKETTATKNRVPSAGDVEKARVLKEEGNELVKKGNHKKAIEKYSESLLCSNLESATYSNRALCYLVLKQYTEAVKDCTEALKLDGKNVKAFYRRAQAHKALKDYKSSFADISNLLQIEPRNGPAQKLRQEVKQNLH
Nature of the series: Inhibition of GST-tagged human TOM34 expressed in Escherichia coli BL21 (DE3) using NH2-EDASRMEEVD-COOH peptide as substrate preincubated for 15 mins followed by substrate addition measured after 15 mins by Alpha Screen assay.

The nature of series [8]: Inhibition of GST-tagged FKBP51 N381Y mutant (unknown origin) using NH2-EDASRMEEVD-COOH peptide as substrate preincubated for 15 mins followed by substrate addition measured after 15 mins by Alpha Screen assay. Further details: species or system Homo sapiens.
In series [9] the target is T5, Aryl-hydrocarbon-interacting protein-like 1 (Homo sapiens, UniProt Q9NZN9).
T5 sequence (Q9NZN9 whole entry): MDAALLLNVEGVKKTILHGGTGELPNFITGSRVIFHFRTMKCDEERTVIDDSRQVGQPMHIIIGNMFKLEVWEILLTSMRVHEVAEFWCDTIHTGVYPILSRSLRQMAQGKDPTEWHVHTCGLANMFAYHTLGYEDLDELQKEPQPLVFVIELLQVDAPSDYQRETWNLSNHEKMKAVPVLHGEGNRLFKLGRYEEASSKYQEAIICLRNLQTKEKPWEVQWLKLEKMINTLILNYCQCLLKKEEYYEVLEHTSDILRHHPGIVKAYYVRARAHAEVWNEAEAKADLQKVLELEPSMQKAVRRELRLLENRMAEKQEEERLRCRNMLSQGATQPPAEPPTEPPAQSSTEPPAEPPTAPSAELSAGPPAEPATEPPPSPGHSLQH
Nature of the series: Inhibition of GST-tagged human AIPL1 expressed in Escherichia coli BL21 (DE3) using NH2-EDASRMEEVD-COOH peptide as substrate preincubated for 15 mins followed by substrate addition measured after 15 mins by Alpha Screen assay.

The target in series [10] is Peptidyl-prolyl cis-trans isomerase D (Homo sapiens, UniProt Q08752). As to the kind of experiment: Inhibition of GST-tagged human CYP40 expressed in Escherichia coli BL21 (DE3) using NH2-EDASRMEEVD-COOH peptide as substrate preincubated for 15 mins followed by substrate addition measured after 15 mins by Alpha Screen assay.
Peptidyl-prolyl cis-trans isomerase D, sequence (Q08752 whole entry): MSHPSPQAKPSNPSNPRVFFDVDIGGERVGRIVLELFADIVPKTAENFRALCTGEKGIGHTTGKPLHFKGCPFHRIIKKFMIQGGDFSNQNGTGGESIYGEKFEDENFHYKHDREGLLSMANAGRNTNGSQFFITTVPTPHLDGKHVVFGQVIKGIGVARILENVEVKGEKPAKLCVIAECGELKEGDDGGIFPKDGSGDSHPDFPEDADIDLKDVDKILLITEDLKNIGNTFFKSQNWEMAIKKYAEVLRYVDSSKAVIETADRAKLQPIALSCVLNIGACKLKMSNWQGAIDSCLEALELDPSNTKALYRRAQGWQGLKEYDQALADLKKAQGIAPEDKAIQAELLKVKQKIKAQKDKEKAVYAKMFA

For the compound `COC(=O)c1c(NC(=O)CSc2nnc(-c3ccco3)c(-c3ccco3)n2)sc(C)c1C`, the figures for the pKd in [1] and in series [3] were 4.32 and 3.13, respectively. Also, the pIC50 is 5.82 in [2]; 5.60 in series [4]; 5.52 in [5]; 5.40 in series [7]; 6.30 in series [8]. Also, the Activity with HEK293 was determined as 10%. For the same compound, the solubility result in series [6] is “Soluble”.

Turning to `Cc1sc(NC(=O)CCCC(=O)Nc2sc(C)c(C)c2C(N)=O)c(C(N)=O)c1C`, the pIC50 in series [4] was 5.60; in series [9] it was 5.70; in series [5], 5.30; in [7], 5.52; in series [10], 5.82.
